{"source": "patent US9387221B2", "about": "“SDF-1 binding nucleic acids and the use thereof in cancer treatment” (NOXXON Pharma AG, priority 2010, dated 2016)", "key": {"[1]": {"molecular_target": "human SDF-1α (Homo sapiens, UniProt P48061)", "sequence (P48061 22-89)": "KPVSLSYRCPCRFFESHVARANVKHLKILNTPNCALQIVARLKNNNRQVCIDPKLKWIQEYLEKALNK", "assay": "Surface plasmon resonance measurement (Biacore 2000)", "format": "binding", "conditions": "Spiegelmer (L-RNA), 37° C.", "experimental": "The Biacore 2000 instrument (Biacore AB, Uppsala, Sweden) was used to analyze binding of Spiegelmers to human SDF-1α. When coupling of human SDF-1α was to be achieved via amine groups, human SDF-1α was dialyzed against water for 1-2 h (Millipore VSWP mixed cellulose esters; pore size, […]) to remove interfering amines. CM4 sensor chips (Biacore AB, Uppsala, Sweden) were activated before protein coupling by a 35-μl injection of a 1:1 dilution of 0.4 M NHS and 0.1 M EDC at a flow of 5 μl/min. Human MCP-1 or human SDF-1α was then injected in concentrations of 0.1-1.5 μg/ml at a flow of 2 μl/min until the instrument's response was in the range of 1000-2000 RU (relative units). Unreacted NHS esters were deactivated by injection of 35 μl ethanolamine hydrochloride solution (pH 8.5) at a flow of 5 μl/min. The sensor chip was primed twice with binding buffer and equilibrated at 10 μl/min for 1-2 hours until the baseline appeared stable. For all proteins, kinetic parameters and dissociation constants were evaluated by a series of Spiegelmer injections at concentrations of 1000, 500, 250, 125, 62.5, 31.25, and 0 nM in selection buffer (Tris-HCl, 20 mM; NaCl, 137 mM; KCl, 5 mM; CaCl2, 1 mM; MgCl2, 1 mM; Tween20, 0.1% [w/v]; pH 7.4). In all experiments, the analysis was performed at 37° C. using the Kinject command defining an association time of 180 and a dissociation time of 360 seconds at a flow of 10 μl/min. Data analysis and calculation of dissociation constants (KD) was done with the BIAevaluation 3.0 software (BIACORE AB, Uppsala, Sweden) using the Langmuir 1:1 stochiometric fitting algorithm."}, "[2]": {"molecular_target": "SDF-1 (Homo sapiens, UniProt P48061)", "sequence (P48061 22-89)": "as above", "assay": "Inhibition of SDF-1-induced chemotaxis, Nalm-6 cells", "format": "cell-based", "conditions": "0.3 nM human SDF-1", "experimental": "The human T cell leukemia cell line Jurkat, the human leukemic monocyte lymphoma cell line U937, the human pre-B cell leukemia cell line BV-173 and human pre-B ALL cell line Nalm-6 express CXCR4. […] All cells used were obtained from the DSMZ (Braunschweig). All cell lines were cultivated at 37° C. and 5% CO2 in RPMI 1640 medium with Glutamax (Invitrogen, Karlsruhe, Germany) which contains 10% fetal bovine serum, 100 units/ml penicillin and 100 μg/ml streptomycin (Invitrogen, Karlsruhe, Germany). One day before the experiment, cells were seeded in a new T175 flask with a density of 0.3×10^6/ml (Jurkat, U937, BV-173) or 0.75×10^6/ml (Nalm-6), respectively.\nFor the experiment, cells were centrifuged (5 min at 300 g), resuspended, counted and washed once with 15 ml HBH (Hanks balanced salt solution containing 1 mg/ml bovine serum albumin and 20 mM HEPES; Invitrogen, Karlsruhe, Germany). Then the cells were resuspended at 1.33×10^6/ml (Jurkat, U937, BV-173) or 2.67×10^6/ml (Nalm-6), respectively. […]\nFor evaluation, fluorescence values were corrected for background fluorescence (no cells in well). Then the difference between experimental conditions with and without SDF-1 was calculated. The value for the sample without Spiegelmer (SDF-1 only) was set 100% and the values for the samples with Spiegelmer were calculated as percent of this. […]"}, "[3]": {"system": "Luc+/GFP+ MM.1S cells", "assay": "Multiple myeloma animal model in SCID mice", "format": "in vivo", "description": "The SDF-1/CXCR4 axis plays a major role in homing and trafficking of multiple myeloma (abbr. MM) cells to the bone marrow (abbr. BM). Therefore, de-adhesion of MM cells from the surrounding BM milieu through SDF-1 inhibition enhances MM sensitivity to therapeutic agents. Azab et al. published a protocol to test the CXCR4 inhibitor AMD3100 potency to disrupt the interaction of MM cells with the BM environment in vivo that affects localization MM cells [, which in turn enhances the sensitivity of MM cells to chemotherapy. […] Based on this protocol (Azab et al. 2009) the SDF-1 binding Spiegelmer NOX-A12 is tested for its potency to disupt the interaction of MM cells with the BM environment in vivo thereby enhancing the sensitivity of the MM cells to therapy.\nFor the MM animal model severe combined immunodeficient (SCID) mice are used whereby Luc+/GFP+ MM.1S cells (2×10^6/mouse) are injected into the tail vein of SCID mice. After 3 to 4 weeks, sufficient tumor progression is detected by bioluminescence imaging (for protocol see Azab et al. 2009). […]"}}, "note": "{PEG40k} = 40 kDa polyethylene glycol", "data": [{"substance": "5′-40 kDa-PEG-GCGUGGUGUGAUCUAGAUGUAUUGGCUGAUCCUAGUCAGGUACGC (5' {PEG40k}, sugars by position and backbone not given here) [NOX-A12]", "values": [{"measurement": "Kd", "setting": "[1]", "value": 0.2, "unit": "nM"}, {"measurement": "inhibition of SDF-1 induced chemotaxis", "setting": "[2]", "value": "Inhibition"}, {"measurement": "tumor growth (in vivo bioluminescence)", "setting": "[3]; NOX-A12 20 mg/kg s.c. every other day together with bortezomib 0.5 mg/kg i.p. twice a week", "value": "reduction of tumor growth"}, {"measurement": "MM cell mobilization (ex vivo flow cytometry)", "setting": "[3]; SCID mice, 20 mg/kg NOX-A12 subcutaneous every other day", "value": "MM cell mobilization from bone marrow to the blood"}]}]}
